This passage reports EC50 results from US10689367B2, “Triazole pyridyl compounds as agonists of the APJ receptor” (AMGEN INC., priority 2016, dated 2020).

human APJ receptor, sequence (P35414 whole entry): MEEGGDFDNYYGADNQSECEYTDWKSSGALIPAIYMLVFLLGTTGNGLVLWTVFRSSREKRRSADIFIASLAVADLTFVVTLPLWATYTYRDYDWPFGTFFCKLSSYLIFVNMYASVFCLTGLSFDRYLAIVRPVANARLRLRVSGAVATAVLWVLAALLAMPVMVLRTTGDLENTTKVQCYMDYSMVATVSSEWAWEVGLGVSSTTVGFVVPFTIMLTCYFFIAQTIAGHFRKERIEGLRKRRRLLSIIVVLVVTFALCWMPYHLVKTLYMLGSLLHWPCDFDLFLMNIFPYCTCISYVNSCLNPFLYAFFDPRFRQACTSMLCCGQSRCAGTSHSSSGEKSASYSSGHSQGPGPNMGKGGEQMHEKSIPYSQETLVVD

For the assay, the target named is human APJ receptor (Homo sapiens (Human), UniProt P35414). Description: [35S]GTPγS binding assay on membranes from CHO cells stably expressing human APJ receptor. Type of assay: biochemical. As to conditions: membranes of CHO cells stably expressing human APJ receptor, read-out: Activity hAPJ SPA EC50 IP. The gist of the method:
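[35S]GTPγS binding measured on membranes from CHO cells stably expressing FLAG-tagged human APJ, with GDP, MgCl2 and NaCl levels optimized beforehand. Incubation 90 min at RT, imager read-out; EC50 from non-linear regression, averaged over several independent experiments.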
As for `COc1cccc(-c2nnc(NS(=O)(=O)[C@@H](C)[C@H](OC)c3ncc(Cl)cn3)n2CCc2ccccn2)n1` [Example 283.0, (1R,2S)-1-(5-chloropyrimidin-2-yl)-1-methoxy-N-(5-(6-methoxypyridin-2-yl)-4-(2-(pyridin-2-yl)ethyl)-4H-1,2,4-triazol-3-yl)propane-2-sulfonamide], the EC50 is 69 nM.
Under `COc1cccc(-c2nnc(NS(=O)(=O)[C@@H](C)[C@H](OC)c3ncc(Cl)cn3)n2[C@@H]2C[C@@H]2F)n1` [Example 169.0, (1R,2S)-1-(5-Chloropyrimidin-2-yl)-N-(4-((1R,2S)-2-fluorocyclopropyl)-5-(6-methoxypyridin-2-yl)-4H-1,2,4-triazol-3-yl)-1-methoxypropane-2-sulfonamide] stands 20 nM; under `COc1cccc(-c2nnc(NS(=O)(=O)[C@@H](C)[C@H](OC)c3ncc(Cl)cn3)n2C[C@@H]2COCCO2)n1` (racemic) [Example 303.0, (1R,2S)-N-(4-(((R)-1,4-dioxan-2-yl)methyl)-5-(6-methoxypyridin-2-yl)-4H-1,2,4-triazol-3-yl)-1-(5-chloropyrimidin-2-yl)-1-methoxypropane-2-sulfonamide or (1R,2S)-N-(4-(((S)-1,4-dioxan-2-yl)methyl)-5-(6-methoxypyridin-2-yl)-4H-1,2,4-triazol-3-yl)-1-(5-chloropyrimidin-2-yl)-1-methoxypropane-2-sulfonamide], 27 nM.
The same measure for `COc1cccc(-c2nnc(NS(=O)(=O)[C@@H](C)[C@@H](OC(C)C)c3ncc(C)cn3)n2C[C@H]2CCCO2)n1` (racemic) [Example 278.0, (1S,2S)-1-isopropoxy-N-(5-(6-methoxypyridin-2-yl)-4-(((R)-tetrahydrofuran-2-yl)methyl)-4H-1,2,4-triazol-3-yl)-1-(5-methylpyrimidin-2-yl)propane-2-sulfonamide or (1S,2S)-1-isopropoxy-N-(5-(6-methoxypyridin-2-yl)-4-(((S)-tetrahydrofuran-2-yl)methyl)-4H-1,2,4-triazol-3-yl)-1-(5-methylpyrimidin-2-yl)propane-2-sulfonamide]: 16 nM; for `COc1cccc(-c2nnc(NS(=O)(=O)[C@@H](C)[C@H](OC)c3ncc(Cl)cn3)n2[C@@H](C)c2ccno2)n1` (mixture of isomers) [Example 200.0, (1R,2S)-1-(5-chloro-2-pyrimidinyl)-1-methoxy-N-(5-(6-methoxy-2-pyridinyl)-4-((1R)-1-(1,2-oxazol-5-yl)ethyl)-4H-1,2,4-triazol-3-yl)-2-propanesulfonamide and (1R,2S)-1-(5-chloro-2-pyrimidinyl)-1-methoxy-N-(5-(6-methoxy-2-pyridinyl)-4-((1S)-1-(1,2-oxazol-5-yl)ethyl)-4H-1,2,4-triazol-3-yl)-2-propanesulfonamide]: 0.87 nM; for `COc1cccc(-c2nnc(NS(=O)(=O)[C@@H](C)[C@H](C)c3ncc(Cl)cn3)n2[C@@H](C)c2ncnn2C)n1` (single isomer, unassigned) [Example 251.0, (2S,3R)-3-(5-chloro-2-pyrimidinyl)-N-(5-(6-methoxy-2-pyridinyl)-4-((1R)-1-(1-methyl-1H-1,2,4-triazol-5-yl)ethyl)-4H-1,2,4-triazol-3-yl)-2-butanesulfonamide or (2S,3R)-3-(5-chloro-2-pyrimidinyl)-N-(5-(6-methoxy-2-pyridinyl)-4-((1S)-1-(1-methyl-1H-1,2,4-triazol-5-yl)ethyl)-4H-1,2,4-triazol-3-yl)-2-butanesulfonamide]: 1.7 nM.
As to `COc1cc(Cn2c(NS(=O)(=O)[C@@H](C)[C@H](OC)c3ncc(Cl)cn3)nnc2-c2cccc(OC)n2)on1` [Example 197.0, (1R,2S)-1-(5-chloro-2-pyrimidinyl)-1-methoxy-N-(4-((3-methoxy-1,2-oxazol-5-yl)methyl)-5-(6-methoxy-2-pyridinyl)-4H-1,2,4-triazol-3-yl)-2-propanesulfonamide], the EC50 was 12 nM.
`COc1cccc(-c2nnc(NS(=O)(=O)[C@@H](C)[C@H](C)c3ncc(Cl)cn3)n2C[C@H]2CCCO2)n1` (racemic) [Example 282.0, (2S,3R)-3-(5-chloropyrimidin-2-yl)-N-(5-(6-methoxypyridin-2-yl)-4-(((R)-tetrahydrofuran-2-yl)methyl)-4H-1,2,4-triazol-3-yl)butane-2-sulfonamide or (2S,3R)-3-(5-chloropyrimidin-2-yl)-N-(5-(6-methoxypyridin-2-yl)-4-(((S)-tetrahydrofuran-2-yl)methyl)-4H-1,2,4-triazol-3-yl)butane-2-sulfonamide]: the EC50 was determined as 54 nM.
The same measure for `CC[C@H]([C@@H]1CCCCO1)n1c(NS(=O)(=O)[C@@H](C)[C@H](OC)c2ncc(C)cn2)nnc1-c1cccc(OC)n1` (single isomer, unassigned) [Example 332.0]: 0.12 nM; for `COc1cccc(-c2nnc(NS(=O)(=O)[C@@H](C)[C@H](OC)c3cnc(C)cn3)n2Cc2ccno2)n1` [Example 206.0, (1R,2S)-1-methoxy-N-(5-(6-methoxy-2-pyridinyl)-4-(1,2-oxazol-5-ylmethyl)-4H-1,2,4-triazol-3-yl)-1-(5-methyl-2-pyrazinyl)-2-propanesulfonamide]: 210 nM; for `COc1cccc(-c2nnc(NS(=O)(=O)[C@@H](C)[C@H](C)c3ncc(Cl)cn3)n2[C@@H](C)c2ncnn2C)n1` (single isomer, unassigned) [Example 250.0]: 370 nM.
Turning to `CO[C@H](c1ncc(Cl)cn1)[C@H](C)S(=O)(=O)Nc1nnc(-c2cncc(C)c2)n1C1CC12CC2` (mixture of isomers) [Example 150.0, (1R,2S)-1-(5-Chloropyrimidin-2-yl)-1-methoxy-N-(5-(5-methylpyridin-3-yl)-4-((R)-spiro[2.2]pentan-1-yl)-4H-1,2,4-triazol-3-yl)propane-2-sulfonamide and (1R,2S)-1-(5-chloropyrimidin-2-yl)-1-methoxy-N-(5-(5-methylpyridin-3-yl)-4-((S)-spiro[2.2]pentan-1-yl)-4H-1,2,4-triazol-3-yl)propane-2-sulfonamide], the 50% effective concentration (EC50) amounted to 100 nM.
`COc1cccc(-c2nnc(NS(=O)(=O)[C@@H](C)[C@@H](OC(C)C)c3ncc(C)cn3)n2[C@H](C)[C@@H]2CCCCO2)n1` (single isomer, unassigned) [Example 321.0]: the 50% effective concentration (EC50) turned out to be 12 nM.
As to `COc1cnc([C@@H](OC)[C@H](C)S(=O)(=O)Nc2nnc(-c3cccc(OC)n3)n2[C@H]2CC23CC3)cn1` (single isomer, unassigned) [Example 160.0, (1R,2S)-1-methoxy-1-(5-methoxypyrazin-2-yl)-N-(5-(6-methoxypyridin-2-yl)-4-((S)-spiro[2.2]pentan-1-yl)-4H-1,2,4-triazol-3-yl)propane-2-sulfonamide or (1R,2S)-1-methoxy-1-(5-methoxypyrazin-2-yl)-N-(5-(6-methoxypyridin-2-yl)-4-((R)-spiro[2.2]pentan-1-yl)-4H-1,2,4-triazol-3-y)propane-2-sulfonamide], the EC50 amounted to 90 nM.
For the compound `COc1cccc(-c2nnc(NS(=O)(=O)[C@@H](C)[C@H](OC)c3ncc(Cl)cn3)n2[C@H](C)[C@@H]2CCCCO2)n1` (racemic) [Example 319.0], the EC50 was 0.44 nM.
Consider `CCn1c(NS(=O)(=O)[C@@H](C)[C@H](OC)c2ncc(Cl)cn2)nnc1-c1ccccn1` [Example 131.0], for which the EC50 turned out to be 25 nM.
As for `COc1cccc(-c2nnc(NS(=O)(=O)[C@@H](C)[C@H](OC)c3ncc(Cl)cn3)n2[C@@H](C)c2ncnn2C)n1` (single isomer, unassigned) [Example 249.0, (1R,2S)-1-(5-chloro-2-pyrimidinyl)-1-methoxy-N-(5-(6-methoxy-2-pyridinyl)-4-((1R)-1-(1-methyl-1H-1,2,4-triazol-5-yl)ethyl)-4H-1,2,4-triazol-3-yl)-2-propanesulfonamide or (1R,2S)-1-(5-chloro-2-pyrimidinyl)-1-methoxy-N-(5-(6-methoxy-2-pyridinyl)-4-((1S)-1-(1-methyl-1H-1,2,4-triazol-5-yl)ethyl)-4H-1,2,4-triazol-3-yl)-2-propanesulfonamide], the EC50 stood at 3 nM.
For the compound `COc1cccc(-c2nnc(NS(=O)(=O)[C@@H](C)[C@H](C)c3ncc(Cl)cn3)n2[C@@H](C)c2ccno2)n1` (mixture of isomers) [Example 201.0, (2S,3R)-3-(5-chloro-2-pyrimidinyl)-N-(5-(6-methoxy-2-pyridinyl)-4-((1R)-1-(1,2-oxazol-5-yl)ethyl)-4H-1,2,4-triazol-3-yl)-2-butanesulfonamide and (2S,3R)-3-(5-chloro-2-pyrimidinyl)-N-(5-(6-methoxy-2-pyridinyl)-4-((1S)-1-(1,2-oxazol-5-yl)ethyl)-4H-1,2,4-triazol-3-yl)-2-butanesulfonamide], the EC50 was determined as 3.5 nM.
`COC[C@H](C)n1c(NS(=O)(=O)[C@@H](C)[C@H](C)c2ncc(Cl)cn2)nnc1-c1cccc(OC)n1` [Example 174.0, (2S,3R)-3-(5-chloro-2-pyrimidinyl)-N-(4-((2S)-1-methoxy-2-propanyl)-5-(6-methoxy-2-pyridinyl)-4H-1,2,4-triazol-3-yl)-2-butanesulfonamide]: the half-maximal effective concentration (EC50) came to 3.3 nM.
Regarding `CCC(CC)n1c(NS(=O)(=O)[C@@H](C)[C@H](OC)c2ncc(Cl)cn2)nnc1-c1cccnc1` [Example 111.0], the EC50 stood at 27 nM.
Regarding `COc1cccc(-c2nnc(NS(=O)(=O)[C@@H](C)[C@H](C)c3ncc(C)cn3)n2C2CC2)n1` [Example 114.0], the EC50 was 54 nM.
With “(1R,2S)-1-(5-chloropyrimidin-2-yl)-1-methoxy-N-(5-(6-methoxypyridin-2-yl)-4-(((S)-oxetan-2-yl)methyl)-4H-1,2,4-triazol-3-yl)propane-2-sulfonamide or (1R,2S)-1-(5-chloropyrimidin-2-yl)-1-methoxy-N-(5-(6-methoxypyridin-2-yl)-4-(((R)-oxetan-2-yl)methyl)-4H-1,2,4-triazol-3-yl)propane-2-sulfonamide [Example 141.0]”, the EC50 turned out to be 16 nM.
